The source of these data is US20090018148A1, “Xanthine Derivatives, Processes For Preparing Them And Their Uses” (UCB PHARMA, S.A., priority 2005, published 2009).

`CCOC(=O)C(CC)Sc1nc2c(c(=O)[nH]c(=O)n2C)n1Cc1cccc(N)c1` (racemic) [Compound 14, ethyl 2-{[7-(3-aminobenzyl)-3-methyl-2,6-dioxo-2,3,6,7-tetrahydro-1H-purin-8-yl]thio}butanoate]: the melting point amounted to 107 °C.
The same measure for `CCOC(=O)C(CC)Sc1nc2c(c(=O)n(C)c(=O)n2C)n1Cc1ccccc1` (racemic) [Compound 1, ethyl 2-[(7-benzyl-1,3-dimethyl-2,6-dioxo-2,3,6,7-tetrahydro-1H-purin-8-yl)thio]butanoate]: 72 °C; for `C#CCn1c(=O)c2c(nc(SC(CC)C(=O)OCC)n2Cc2cccc(Br)c2)n(C)c1=O` (racemic) [Compound 11, ethyl 2-{[7-(3-bromobenzyl)-3-methyl-2,6-dioxo-1-(2-propynyl)-2,3,6,7-tetrahydro-1H-purin-8-yl]thio}butanoate]: 97 °C; for `CCOC(=O)C(CC)Sc1nc2c(c(=O)[nH]c(=O)n2C)n1Cc1cccc([N+](=O)[O-])c1` (racemic) [Compound 13, ethyl 2-{[3-methyl-7-(3-nitrobenzyl)-2,6-dioxo-2,3,6,7-tetrahydro-1H-purin-8-yl]thio}butanoate]: 147 °C.
In turn, `CCOC(=O)C(CC)Sc1nc2c(c(=O)[nH]c(=O)n2C)n1Cc1c(C)noc1C` (racemic) [Compound 20, ethyl 2-({7-[(3,5-dimethylisoxazol-4-yl)methyl]-3-methyl-2,6-dioxo-2,3,6,7-tetrahydro-1H-purin-8-yl}thio)butanoate] had a melting point of 208 °C.
With `CCOC(=O)C(CC)Sc1nc2c(c(=O)[nH]c(=O)n2C)n1Cc1ccc(S(N)(=O)=O)cc1` (racemic) [Compound 15, ethyl 2-({7-[4-(aminosulfonyl)benzyl]-3-methyl-2,6-dioxo-2,3,6,7-tetrahydro-1H-purin-8-yl}thio)butanoate], the melting point is 175.2 °C.
The compound `CCC(CC)Sc1nc2c(c(=O)[nH]c(=O)n2C)n1Cc1cccc(Br)c1` [Compound 29, 7-(3-bromobenzyl)-8-[(1-ethylpropyl)thio]-3-methyl-3,7-dihydro-1H-purine-2,6-dione] came in with a melting point of 167 °C.
Compound `CCCCn1c(SC(CC)C(N)=O)nc2c1c(=O)[nH]c(=O)n2C` (racemic) [Compound 28, 2-[(7-butyl-3-methyl-2,6-dioxo-2,3,6,7-tetrahydro-1H-purin-8-yl)thio]butanamide] gave a melting point of 253 °C.
Consider `CCOC(=O)C(CC)Sc1nc2[nH]c(=O)[nH]c(=O)c2n1Cc1cccc(Br)c1` (racemic) [Compound 4, ethyl 2-{[7-(3-bromobenzyl)-2,6-dioxo-2,3,6,7-tetrahydro-1H-purin-8-yl]thio}butanoate], for which the melting point came out at 90.1 °C.
Next, `CCOC(=O)C(CC)Sc1nc2c(c(=O)[nH]c(=O)n2C)n1Cc1cccc(OC)c1` (racemic) [Compound 12, ethyl 2-{[7-(3-methoxybenzyl)-3-methyl-2,6-dioxo-2,3,6,7-tetrahydro-1H-purin-8-yl]thio}butanoate]: 115 °C.
The same measure for `CCCCCCn1c(SC(CC)C(=O)OCC)nc2c1c(=O)[nH]c(=O)n2C` (racemic) [Compound 25, ethyl 2-[(7-hexyl-3-methyl-2,6-dioxo-2,3,6,7-tetrahydro-1H-purin-8-yl)thio]butanoate]: 87 °C; for `CCC(Sc1nc2c(c(=O)[nH]c(=O)n2C)n1Cc1cccc(Br)c1)C(N)=O` (racemic) [Compound 27, 2-{[7-(3-bromobenzyl)-3-methyl-2,6-dioxo-2,3,6,7-tetrahydro-1H-purin-8-yl]thio}butanamide]: 244.15 °C.
`CCCCn1c(SC(CC)C(=O)OCC)nc2c1c(=O)[nH]c(=O)n2C` (racemic) [Compound 22, ethyl 2-[(7-butyl-3-methyl-2,6-dioxo-2,3,6,7-tetrahydro-1H-purin-8-yl)thio]butanoate] showed a melting point of 104 °C.
Next, `CCOC(=O)C(CC)Sc1nc2c(c(=O)n(C)c(=O)n2C)n1Cc1ccccc1Br` (racemic) [Compound 6, ethyl 2-{[7-(2-bromobenzyl)-1,3-dimethyl-2,6-dioxo-2,3,6,7-tetrahydro-1H-purin-8-yl]thio}butanoate]: 101 °C; `CCOC(=O)C(CC)Sc1nc2c(c(=O)n(C)c(=O)n2C)n1Cc1cccc(Br)c1` (racemic) [Compound 5, ethyl 2-{[7-(3-bromobenzyl)-1,3-dimethyl-2,6-dioxo-2,3,6,7-tetrahydro-1H-purin-8-yl]thio}butanoate]: 76 °C; `CCOC(=O)C(CC)Sc1nc2c(c(=O)[nH]c(=O)n2C)n1CC(C)C` (racemic) [Compound 31, ethyl 2-[(7-isobutyl-3-methyl-2,6-dioxo-2,3,6,7-tetrahydro-1H-purin-8-yl)thio]butanoate]: 132 °C.
The compound `CCOC(=O)C(CC)Sc1nc2c(c(=O)n(CCOC)c(=O)n2C)n1Cc1cccc(Br)c1` (racemic) [Compound 3, ethyl 2-{[7-(3-bromobenzyl)-1-(2-methoxyethyl)-3-methyl-2,6-dioxo-2,3,6,7-tetrahydro-1H-purin-8-yl]thio}butanoate] registered a melting point of 58 °C.
In the case of `CCOC(=O)C(CC)Sc1nc2c(c(=O)[nH]c(=O)n2C)n1Cc1ccc([N+](=O)[O-])o1` (racemic) [Compound 21, ethyl 2-({3-methyl-7-[(5-nitro-2-furyl)methyl]-2,6-dioxo-2,3,6,7-tetrahydro-1H-purin-8-yl}thio)butanoate], the melting point stood at 172 °C.
Next, `CCOC(=O)C(CC)Sc1nc2c(c(=O)n(CC#N)c(=O)n2C)n1Cc1cccc(Br)c1` (racemic) [Compound 7, ethyl 2-{[7-(3-bromobenzyl)-1-(cyanomethyl)-3-methyl-2,6-dioxo-2,3,6,7-tetrahydro-1H-purin-8-yl]thio}butanoate]: 84 °C.

As usually defined, the melting point is the temperature of the solid-liquid transition.
